# In patent US9738884B2, “Therapeutic agent for epithelial and endothelial injury” (NIHON UNIVERSITY, priority 2012, dated 2017):
# System: pulmonary edema model mice
# Test: LPS-induced pulmonary edema model mice, lung weight/body weight (Example 10, Experiment 1)
# Type: in vivo
# Settings: 350 ng/body weight (g) intravenous, three hours after LPS 100 μg/body weight (g) intravenous
# Description: FIG. 10 is a graph showing the results of Experiment 1 in Example 10 of the present application, namely, the results regarding therapeutic effects on pulmonary edema (the effect of reducing the amount of lung water). In the graph, “Control” indicates normal mice, “LPS” indicates an “LPS (lipopolysaccharide)+control peptide (SEQ ID NO: 26)” administration group, and “LPS/Peptide” indicates an “LPS (lipopolysaccharide)+therapeutic peptide (SEQ ID NO: 25)” administration group. In addition, the numerical value of the vertical axis in the graph indicates the ratio of the weight (g) of lung to the body weight (g) of each mouse (lung weight (g)/body weight (g)).
# The therapeutic effects of the peptide of the present invention on model mice with pulmonary edema, which were caused by septicemia, disseminated intravascular coagulation syndrome (DIC) or acute respiratory distress syndrome (ARDS), were confirmed. […]
# A comparison experiment was carried out on a normal mouse group (healthy mice), an “LPS (lipopolysaccharide; endotoxin)+control peptide (SEQ ID NO: 26)” administration group, and an “LPS+therapeutic peptide (SEQ ID NO: 25)” administration group (7 mice/each group). […] Thereafter, the lung was removed from the mice in each group, and the weight of each lung was measured. The ratio of the weight (g) of the lung to the body weight (g) (lung weight (g)/body weight (g)) was calculated.
sequence,measurement,value
AETVFSNMDYENSTEAVFIQDDITKKKKKK [SEQ ID NO: 25],reduction of the LPS-increased amount of lung weight,72%
